We go through eight compounds from paper PMC4935745, “Synthesis and stereochemical determination of an antiparasitic pseudo-aminal type monoterpene indole alkaloid” (Journal of Natural Medicines, 2016).

Type in all cases: cell-based
Data set [1] concerns Plasmodium falciparum (chloroquine-resistant K1 strain). The data set is described as follows: In vitro antimalarial activity, K1 strain. The following applies: for Selectivity index (SI) M/K: MRC-5/K1; for IC50: Plasmodium falciparum, K1, chloroquine-resistant strain. The protocol: (§1) Naturally occurring and synthetic compounds were tested for antimalarial activity against Plasmodium falciparum parasites (chloroquine-resistant K1 strain and chloroquine-susceptible FCR3 strain) and for cytotoxicity (against human MCR-5 cells), in comparison with the first-line antimalarial artemisinin.

For data set [2], the system named is Plasmodium falciparum (chloroquine-susceptible FCR3 strain). The data set is described as follows: In vitro antimalarial activity, FCR3 strain. The note with it: for Selectivity index (SI) M/F: MRC-5/FCR3; for IC50: Plasmodium falciparum, FCR3, chloroquine-sensitive strain, in vitro. On the procedure: as §1
A short description of data set [3]: Cytotoxicity against human MRC-5 cells. The note with it: human. The protocol: as §1
The subject of another data set is MRC-5 cells. The data set is described as follows: Cytotoxicity against human MRC-5 cells. The following applies: human MRC-5 cells. On the procedure:
as §1

The mark [4] stands for this setting: MRC-5 cells, human MRC-5 cells, read-out: Cytotoxicity MRC-5 IC50.

SMILES strings stand for the structures. In brackets after ≈: the same amount, converted by molar mass. Read-outs that look alike come from different tables or passages of the source. Where only a bound is given, the exact number is not on record here.

In general, IC50 refers to the concentration at which inhibition is half-maximal.

Take `C/C=C1/CNCC[C@@H]1[C@@](C)(O)c1cc2ccccc2[nH]1` (racemic) [(±)-(15S,16R)-37]: in data set [1], the “Selectivity index (SI) M/K” value was 4.5. The IC50 in data set [1] (in vitro) was 8.98 mg/L (≈ 33.2 µM); in data set [2] it was over 12.5 mg/L; in data set [3] (setting [4]) it was 40.8 mg/L (≈ 151 µM). For the same compound, the “Selectivity index (SI) M/F” value in data set [2] is on record as under 3.3.
Turning to `CC=C1CN2CCC1C(C)(O)c1[nH]c3ccccc3c1C2` (racemic) [Synthetic (±)-(15S*,16S*)-1, (±)-(15S*,16S*)-16-hydroxy-16,22-dihydroapparicine], the results for the half-maximal inhibitory concentration (IC50) in data set [1] (in vitro) and in data set [3] (setting [4]) were over 12.5 mg/L and 33.3 mg/L (≈ 118 µM), respectively.
For the compound `CC=C1CN2CCC1C(C)(O)c1[nH]c3ccccc3c1C2` (single isomer, unassigned; (+)) [Synthetic (+)-(15S,16R)-1], in data set [1] (K1 strain, in vitro), the “Antimalarial activity against chloroquine-resistant P. falciparum (in words)” value is reported as “moderate/weak antimalarial activity”. Further, the “Selectivity index (SI) M/K” value in data set [1] turned out to be 5.7. In addition, the “Antimalarial activity K1 IC50” value in data set [1] (chloroquine-resistant strain, in vitro) was determined as 9.00 mg/L. In data set [2], the “Selectivity index (SI) M/F” value is 6.1 and half-maximal inhibition (IC50) required 8.37 mg/L (≈ 29.6 µM). The “Cytotoxicity MRC-5 IC50” value in the data set on MRC-5 cells turned out to be 51.2 mg/L.
In the case of `C/C=C(/COC(=O)C(C)(C)C)[C@H](CCN=[N+]=[N-])[C@@](C)(O)c1cc2ccccc2n1CO[Si](C)(C)C(C)(C)C` [(−)-(15S,16R)-32], the IC50 in data set [1] (in vitro) and in data set [2] was over 12.5 mg/L throughout.
As for `C/C=C(/CO)[C@H](CCN=[N+]=[N-])[C@@](C)(O)c1cc2ccccc2[nH]1` [(−)-(15S,16R)-33], the “Selectivity index (SI) M/K” value in data set [1] was 2.3. The IC50 in data set [1] (in vitro) was 7.58 mg/L (≈ 24.1 µM); in data set [2], 7.17 mg/L (≈ 22.8 µM); in data set [3] (setting [4]), 17.8 mg/L (≈ 56.6 µM). The “Selectivity index (SI) M/F” value in data set [2] is on record as 2.5.
For `C/C=C(/COc1ncccc1[N+](=O)[O-])[C@H](CCN=[N+]=[N-])[C@@](C)(O)c1cc2ccccc2[nH]1` [(−)-(15S,16R)-34], in data set [1], the “Selectivity index (SI) M/K” value was over 12.4. Moreover, the IC50 in data set [1] (in vitro) was 8.04 mg/L (≈ 18.4 µM); in data set [2], over 12.5 mg/L; in data set [3] (setting [4]), over 100 mg/L.
As to `C/C=C1/C(=O)O[C@H](C)[C@H]1CCN=[N+]=[N-]` [(−)-(15S,16R)-39], the “Selectivity index (SI) M/K” value in data set [1] was 5.8. Besides, the IC50 is 9.38 mg/L (≈ 48 µM) in data set [1] (in vitro), over 12.5 mg/L in data set [2] and 54 mg/L (≈ 277 µM) in data set [3] (setting [4]). Further, the “Selectivity index (SI) M/F” value in data set [2] is under 4.3.
On to `C[C@@H]1CC[C@H]2[C@@H](C)C(=O)O[C@@H]3O[C@@]4(C)CC[C@@H]1[C@]32OO4` [Artemisinin, reference compound], for which the “Selectivity index (SI) M/K” value in data set [1] is recorded as 7528. For the same compound, the IC50 in data set [1] (in vitro) was determined as 0.006 mg/L (≈ 0.0213 µM); in data set [2], 0.006 mg/L (≈ 0.0213 µM); in data set [3] (Cytotoxicity MRC-5 IC50), 45.2 mg/L (≈ 160 µM). The “Selectivity index (SI) M/F” value in data set [2] is on record as 7528.
